According to PubChem BioAssay (NCI):
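Dose response: 5 concentrations. Exposure: 48 h. Format: 96-well plates. Endpoint: linear interpolation; highest concentration if not reached. TGI marks complete inhibition of growth.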

Tests used:
Experiment in all cases: NCI anticancer screen, dose series, 48 h
[1] = tested on: U251 CNS
[2] = tested on: TK-10 renal
[3] = tested on: ACHN renal
[4] = tested on: SK-MEL-5 melanoma
[5] = tested on: OVCAR-3 ovarian
[6] = tested on: CAKI-1 renal
[7] = tested on: IGROV1 ovarian
[8] = tested on: MCF7 breast
[9] = tested on: A549 NSCLC
[10] = tested on: SN12C renal
[11] = tested on: NCI/ADR-RES ovarian
[12] = tested on: CCRF-CEM leukemia
[13] = tested on: PC-3 prostate
[14] = tested on: MDA-MB-231 breast
[15] = tested on: OVCAR-8 ovarian
[16] = tested on: OVCAR-4 ovarian
[17] = tested on: LOX IMVI melanoma
[18] = tested on: SW-620 colon
[19] = tested on: NCI-H460 lung
[20] = tested on: NCI-H522 lung
[21] = tested on: KM12 colon
[22] = tested on: NCI-H23 lung
[23] = tested on: SF-268 CNS
[24] = tested on: HL-60(TB) leukemia
[25] = tested on: HCT-116 colon
[26] = tested on: 786-0 renal
[27] = tested on: COLO 205 colon
[28] = tested on: SNB-19 CNS
[29] = tested on: HCT-15 colon
[30] = tested on: UACC-62 melanoma
[31] = tested on: HS 578T breast
[32] = tested on: SNB-75 CNS
[33] = tested on: SK-OV-3 ovarian
[34] = tested on: RXF 393 renal
[35] = tested on: MOLT-4 leukemia
[36] = tested on: HT29 colon
[37] = tested on: MDA-N
[38] = tested on: MDA-MB-435
[39] = tested on: DU-145 prostate
[40] = tested on: HOP-92 NSCLC
[41] = tested on: SK-MEL-28 melanoma
[42] = tested on: EKVX NSCLC
[43] = tested on: SF-295 CNS
[44] = tested on: M14 melanoma
[45] = tested on: UACC-257 melanoma
[46] = tested on: SK-MEL-2 melanoma
[47] = tested on: OVCAR-5 ovarian
[48] = tested on: SF-539 CNS
[49] = tested on: BT-549 breast
[50] = tested on: HOP-62 NSCLC
[51] = tested on: HCC-2998 colon
[52] = tested on: NCI-H226 lung
[53] = tested on: UO-31 renal
[54] = tested on: MALME-3M melanoma
[55] = tested on: T-47D breast
[56] = tested on: K-562 leukemia
[57] = tested on: RPMI-8226 leukemia
[58] = tested on: A498 renal
[59] = tested on: SR leukemia

Measured: TGI

CC(=O)C1C(=O)C(=O)N(c2ccccc2)C1=O (configuration not stated)
not listed: [54] | [55] | [56] | [57] | [58] | [59]
> 100 µM: all other assays above

CC(C)C1OC(N)=C(C#N)C1(C#N)C#N (configuration not stated)
58 µM: [51]
13.5 µM: [6]
35.5 µM: [24]
79.2 µM: [57]
91.4 µM: [12]
96.4 µM: [45]
not listed: [5] | [16] | [19] | [29] | [35] | [41] | [49] | [59]
> 100 µM: all other assays above

Clc1ccc(Nc2nnc(CCCCCCCCc3nnc(Nc4ccc(Cl)cc4)o3)o2)cc1
78.4 µM: [30]
79.7 µM: [57]
60.1 µM: [26]
64.2 µM: [4]
89.8 µM: [9]
99.2 µM: [21]
73.1 µM: [20]
98.7 µM: [40]
90.6 µM: [22]
34.5 µM: [25]
not listed: [5] | [12] | [15] | [17] | [23] | [24] | [31] | [34] | [48] | [55] | [59]
> 100 µM: all other assays above

CC(C)(C)n1c(=O)n2n(c1=O)Cc1cccc3cccc(c13)C2
54.2 µM: [43]
58.8 µM: [41]
45.6 µM: [51]
13.6 µM: [20]
92.4 µM: [8]
69.2 µM: [40]
49.1 µM: [23]
35.4 µM: [56]
34 µM: [21]
46.3 µM: [10]
89.6 µM: [45]
36.9 µM: [6]
62 µM: [38]
42.3 µM: [59]
33.8 µM: [25]
33.2 µM: [50]
39.5 µM: [29]
27.1 µM: [34]
53.1 µM: [53]
37.1 µM: [11]
82.5 µM: [30]
72.3 µM: [27]
35.1 µM: [5] | [47]
66.4 µM: [32]
61.1 µM: [31]
31.7 µM: [54]
30.5 µM: [13]
44.7 µM: [3]
36.4 µM: [48]
34.1 µM: [44]
95.3 µM: [49]
50.3 µM: [16]
24.6 µM: [12]
23.9 µM: [19]
69.9 µM: [15]
50.8 µM: [37]
93.3 µM: [33]
39.7 µM: [36]
73.5 µM: [17]
38.2 µM: [46]
35.9 µM: [18]
38.5 µM: [7]
33.9 µM: [1]
45.1 µM: [26]
71.6 µM: [57]
93.8 µM: [35]
not listed: [24] | [52] | [55] | [58]
> 100 µM: all other assays above
